Experimental data: patent US20220160658A1, “TESOFENSINE FOR REDUCTION OF BODY WEIGHT IN PRADER-WILLI PATIENTS” (Saniona A/S, priority 2019, published 2022)
“And” between values parts separate entries of the source, which are not always exact repeats. Equal values may be shown once.

Assays:
[1] = in vivo; cited from earlier work
[2] = Phase 2a trial in adolescent PWS patients: tesofensine plasma levels; assay type: in vivo, human; conditions: for concentration at 3 months: human, plasma, oral
Procedure: (§1) This study included a double blind (DB) part (3 months) and two Open Label Extensions (OLE), each 3 months. Adolescents (12 to 17 years of age) received: tesofensine 0.125 mg daily (0.25 mg every second day)+metoprolol succinate 25 mg. Example 4 relates to Example 2.
(§2) The initial double blind (DB) phase of this study utilized a dose of tesofensine of 0.125 mg daily. In the first 3-month Open Label Extension (OLE1), a dose of 0.125 mg tesofensine was maintained. In the second OLE (OLE2), the tesofensine dose, if judged safe by the principle investigator (PI), was increased to 0.25 mg daily.

[3] = Phase 2a trial in adolescent PWS patients: hyperphagia score; assay type: in vivo, human
Procedure: as §1, §2

[4] = cited from earlier work
[5] = Phase 2a trial in adolescent PWS patients: body weight and BMI, random coefficients analysis; assay type: in vivo, human
Procedure: Arm 1) tesofensine 0.125 mg+metoprolol 25 mg administered once a day, in the morning with a meal-first, an initial titration dose of tesofensine 0.0625 mg+metoprolol 25 mg will be given for the first 4 weeks, in the morning with a meal. Following a favorable review of all safety data for each subject by the investigator, tesofensine 0.125 mg+metoprolol 25 mg will be given for the final 9 weeks (the above proposed dosing plan can be adjusted by the DSMB, if needed)
as §1, §2
In the random coefficients analysis, each subject was considered as having their own profile of data, i.e. their own set of weight change/hyperphagia values and corresponding pk values. The analysis was essentially conducted by fitting a regression line to each subject individually:
where j denotes subjects, j=1 to m, and i denotes the measurement with subject j, i=1 to nj. The slope βj and intercept αj estimate for each subject j=1 to m, along with their standard errors, were then obtained. In a final step, the βj and αj values were averaged across the m subjects to give the overall mean regression slope and mean intercept, βj and αj, which gives the correlation line, as well as the associated confidence interval.

[6] = system: rat model of diet-induced obesity (DIO); conditions: DIO rats; cited from earlier work
[7] = Phase 2a trial in adult PWS patients: tesofensine plasma concentration; assay type: in vivo, human; conditions: for Mean trough plasma concentration of tesofensine: TM002 study, 0.50 mg tesofensine + 50 mg metoprolol daily
Procedure: This exploratory Phase 2a trial comprised in of a total of nine adult patients with Prader-Willi syndrome (PWS) of which six patients received co-administration of tesofensine (0.50 mg)/metoprolol (50 mg) (A, active treatment—Tesomet) and three patients received placebo (P). The initial plan was to complete 10-20 adult subjects with PWS. However, ultimately nine patients were randomized as more subjects were not available at the two participating sites.
The main objective of this study was to examine the effect of co-administration of tesofensine/metoprolol on body weight in subjects with PWS. Further objectives were: • To establish a pharmacokinetic profile of tesofensine and metoprolol in subjects with PWS. • To examine the effect of co-administration of tesofensine/metoprolol on glycaemic control and lipid profile in subjects with PWS • To examine the effect of co-administration of tesofensine/metoprolol on HR and BP in subjects with PWS • To examine the effects of co-administration of tesofensine/metoprolol on body composition in subjects with PWS • To evaluate overall safety and tolerability of co-administration of the tesofensine/metoprolol in subjects with PWS
Arm 1) tesofensine 0.50 mg+metoprolol 50 mg administered once a day, in the morning with a meal
The study included two arms: Tesomet 0.5/50 (combination of 0.50 mg tesofensine and 50 mg of metoprolol ER) or placebo tablets matching tesofensine+metoprolol succinate, each administered once daily in the morning with a meal.
The primary endpoint was change in body weight following 91 days of treatment with either tesofensine+metoprolol or placebo. Patients were weighed throughout the study period to track changes in body weight. Secondary endpoints included change in hyperphagia-related behavior, pharmacokinetic profile, effects of co-administration of tesofensine/metoprolol on HR, BP, glycemic control, lipid profile and body composition, and safety and tolerability.

[8] = cited from earlier work; remark: listed apart in the source
[9] = 0.125 mg tesofensine daily (DB, OLE1)

## COCCc1ccc(OCC(O)CNC(C)C)cc1 (stereo not drawn) [Metoprolol, 1-(Isopropylamino)-3-[4-(2-methoxyethyl)-phenoxy]-propan-2-ol, reference compound]
[1]
  half-life: 3 to 4 h

## CCOC[C@@H]1[C@@H](c2ccc(Cl)c(Cl)c2)C[C@@H]2CC[C@H]1N2C [Tesofensine, (1R,2R,3S,5S)-3-(3,4-dichlorophenyl)-2-(ethoxymethyl)-8-methyl-8-azabicyclo[3.2.1]octane]
[2]; [9]
  plasma levels of tesofensine: 3 to 5 ng/mL
  concentration at 3 months: 3 to 5 ng/mL
[2]; 0.25 mg tesofensine daily (OLE2)
  concentration at 3 months: 7 to 9 ng/mL
[3]; DB part and OLE1, 0.125 mg tesofensine daily
  hyperphagia scores compared to placebo: did not differ from placebo
[3]; DB phase, 0.125 mg tesofensine dose
  hyperphagia compared to placebo: No difference compared to placebo
[3]; OLE2, 0.25 mg tesofensine
  hyperphagia scores: dropped to single digit numerical values
[1]
  serum half-life: nine
[4]; TIPO-1, dose of 0.5 mg Tesofensine
  average tesofensine trough plasma concentration: 10 ng/mL
[4]; previous studies in obese individuals at the same dosages
  efficacious target plasma levels: ~10 ng/mL and around 10 ng/mL
[5]; adolescent PWS, DB phase, 0.125 mg tesofensine dose
  weight change compared to placebo: No difference compared to placebo
[5]; adolescent PWS, at 10 ng/mL tesofensine plasma level, from the correlation analysis
  decrease in weight: around 2%
[5]; adolescent PWS, random coefficients analysis
  tesofensine plasma level that counteracts the baseline weight gain of around 3%: around 6 ng/mL
[5]; random coefficients analysis, N=8, p=0.0031
  Slope (SE), monthly BMI change versus tesofensine plasma level: −0.478 (0.1081)
[5]; random coefficients analysis, N=8, p=0.0046
  Slope (SE), monthly body weight change versus tesofensine plasma level: −0.460 (0.1120)
[6]
  body weight: robust and sustained weight loss
[7]; V5 (day 28), n = 6
  Mean trough plasma concentration of tesofensine: 18 ± 9 ng/mL
[7]; V9 (day 56), n = 5
  Mean trough plasma concentration of tesofensine: 21 ± 8 ng/mL
[7]; V14 (day 91), n = 2
  Mean trough plasma concentration of tesofensine: 23 ± 1 ng/mL
[7]; adult PWS, 0.50 mg tesofensine and 50 mg metoprolol
  plasma levels of tesofensine: 20 to 40 ng/mL
[7]; adult PWS, 0.5 mg tesofensine, two patients
  plasma concentration in individual patients: 34.1 ng/mL and 34.2 ng/mL
[7]; adult PWS, dosing of 0.5 mg tesofensine, whole study
  mean trough plasma concentration: ~20 ng/mL
[8]; Astrup et al., 2008
  waist circumference and sagittal diameter: significantly decreases
[8]; obese patients, long-term treatment, corrected for placebo and diet effects
  weight loss: about 10%
